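Five concentrations, 48 hours, 96-well plates. At the GI50, growth is halved. Definition used: TGI = concentration required for complete inhibition of growth.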
Assays:
Experiment in all cases: inhibition of tumour cell growth, NCI panel, 48 h
TK-10 renal = test system: TK-10 renal
MCF7 breast = test system: MCF7 breast
KM12 colon = test system: KM12 colon
HCT-116 colon = test system: HCT-116 colon
EKVX NSCLC = test system: EKVX NSCLC
OVCAR-3 ovarian = test system: OVCAR-3 ovarian
MOLT-4 leukemia = test system: MOLT-4 leukemia
HT29 colon = test system: HT29 colon
SK-MEL-28 melanoma = test system: SK-MEL-28 melanoma
HL-60(TB) leukemia = test system: HL-60(TB) leukemia

With `C=C1C(=O)OC2C1C(OC(=O)/C(C)=C/C)CC1(C)C(=O)CCC(=C)C21` (stereo not given) the TGI (TK-10 renal) was 25.7 µM, the TGI (MCF7 breast) was 18 µM and the TGI (KM12 colon) was 32 µM. The TGI (HCT-116 colon) was 31.2 µM, the TGI (EKVX NSCLC) was 33.8 µM and the TGI (OVCAR-3 ovarian) was 19.7 µM. The TGI (MOLT-4 leukemia) was > 26.5 µM, the TGI (HT29 colon) was 22 µM and the TGI (SK-MEL-28 melanoma) was > 42.8 µM.
`CC1(C)COC(/C=C/C2=NC(C)(C)CO2)=N1` was tested, and the TGI (TK-10 renal) was 27.2 µM, the TGI (MCF7 breast) was 33.1 µM and the TGI (KM12 colon) was 37.1 µM. It also gave a TGI (HCT-116 colon) of 25.9 µM, a TGI (EKVX NSCLC) of 41.8 µM and a TGI (OVCAR-3 ovarian) of 30.8 µM. The TGI (MOLT-4 leukemia) was 36.1 µM, the TGI (HT29 colon) was 98.4 µM and the TGI (SK-MEL-28 melanoma) was 38.1 µM. It also gave a TGI (HL-60(TB) leukemia) of 49.4 µM.
For `COc1cccc(-c2nc3c(C(=O)NCCN(C)C)cccc3[nH]2)c1`, the TGI (MCF7 breast) was > 100 µM, the TGI (KM12 colon) was > 72 µM and the TGI (HCT-116 colon) was 44.2 µM. The TGI (EKVX NSCLC) was 97.5 µM, the TGI (OVCAR-3 ovarian) was > 75.9 µM and the TGI (MOLT-4 leukemia) was 24.4 µM. For the same compound, the TGI (HT29 colon) was 42 µM, the TGI (SK-MEL-28 melanoma) was 31.4 µM and the TGI (HL-60(TB) leukemia) was 41.2 µM.
For `Nc1nc(SCc2ccccc2)c2ncn(Cc3ccccc3)c2n1`, the TGI (TK-10 renal) was > 100 µM, the TGI (MCF7 breast) was > 100 µM and the TGI (KM12 colon) was > 100 µM. For the same compound, the TGI (HCT-116 colon) was > 100 µM, the TGI (EKVX NSCLC) was > 100 µM and the TGI (OVCAR-3 ovarian) was > 100 µM. The TGI (MOLT-4 leukemia) was > 100 µM, the TGI (HT29 colon) was > 100 µM and the TGI (SK-MEL-28 melanoma) was > 100 µM. For the same compound, the TGI (HL-60(TB) leukemia) was > 100 µM.
For `Fc1ccc(-c2ccc(-c3nnc(-c4cc(F)c(Cl)cc4Cl)o3)o2)cc1Cl`, the GI50 (TK-10 renal) was 27.2 µM, the TGI (TK-10 renal) was > 100 µM and the GI50 (MCF7 breast) was 26.8 µM. For the same compound, the TGI (MCF7 breast) was > 100 µM, the GI50 (KM12 colon) was 26.1 µM and the TGI (KM12 colon) was 74.1 µM. For the same compound, the GI50 (EKVX NSCLC) was 26.5 µM, the TGI (EKVX NSCLC) was > 100 µM and the GI50 (OVCAR-3 ovarian) was 21.9 µM. It also gave a TGI (OVCAR-3 ovarian) of 72.5 µM, a GI50 (MOLT-4 leukemia) of 24.2 µM and a TGI (MOLT-4 leukemia) of 85.2 µM. The GI50 (HT29 colon) was 22.7 µM, the TGI (HT29 colon) was 50.9 µM and the GI50 (SK-MEL-28 melanoma) was 24.9 µM. For the same compound, the TGI (SK-MEL-28 melanoma) was 68.2 µM, the GI50 (HL-60(TB) leukemia) was > 100 µM and the TGI (HL-60(TB) leukemia) was > 100 µM.
Compound `S=C(Nc1ccc(Cl)cc1)Nc1ccc(Cl)cc1` (tested in a mixture with another compound) has a GI50 (TK-10 renal) of 2.24 µM, a TGI (TK-10 renal) of 5.9 µM and a GI50 (MCF7 breast) of 2.89 µM. It also gave a TGI (MCF7 breast) of 8.09 µM, a GI50 (KM12 colon) of 2.76 µM and a TGI (KM12 colon) of 9.1 µM. It also gave a GI50 (HCT-116 colon) of 1.46 µM, a TGI (HCT-116 colon) of 3.07 µM and a GI50 (EKVX NSCLC) of 2.25 µM. The TGI (EKVX NSCLC) was > 100 µM, the GI50 (OVCAR-3 ovarian) was 1.69 µM and the TGI (OVCAR-3 ovarian) was 4.48 µM. The GI50 (HT29 colon) was 1.96 µM, the TGI (HT29 colon) was 4.88 µM and the GI50 (SK-MEL-28 melanoma) was 3.46 µM. For the same compound, the TGI (SK-MEL-28 melanoma) was 25.5 µM, the GI50 (HL-60(TB) leukemia) was 1.98 µM and the TGI (HL-60(TB) leukemia) was 4.98 µM.
With `O=C1c2ccccc2-c2ccc(N=[N+]([O-])c3ccc4c(c3)C(=O)c3ccccc3-4)cc21` the TGI (TK-10 renal) was > 100 µM, the TGI (MCF7 breast) was > 100 µM and the TGI (KM12 colon) was > 100 µM. For the same compound, the TGI (HCT-116 colon) was > 100 µM, the TGI (EKVX NSCLC) was > 100 µM and the TGI (OVCAR-3 ovarian) was > 100 µM. For the same compound, the TGI (MOLT-4 leukemia) was > 100 µM, the TGI (HT29 colon) was > 100 µM and the TGI (SK-MEL-28 melanoma) was > 100 µM. For the same compound, the TGI (HL-60(TB) leukemia) was > 100 µM.
For `O=C1/C(=C\c2ccc(-c3ccc(Cl)cc3Cl)o2)SC2N=C(COc3ccc(Cl)cc3)NN12` (stereo not given), the TGI (TK-10 renal) was 18.3 µM, the TGI (MCF7 breast) was > 100 µM and the TGI (KM12 colon) was > 100 µM. The TGI (HCT-116 colon) was > 100 µM, the TGI (EKVX NSCLC) was 86.5 µM and the TGI (OVCAR-3 ovarian) was > 100 µM. For the same compound, the TGI (MOLT-4 leukemia) was > 100 µM, the TGI (HT29 colon) was > 100 µM and the TGI (SK-MEL-28 melanoma) was > 100 µM. The TGI (HL-60(TB) leukemia) was > 100 µM.
With `O=S(O)c1cc(Cl)cc(Cl)c1O` the TGI (TK-10 renal) was > 100 µM, the TGI (KM12 colon) was > 100 µM and the TGI (HCT-116 colon) was > 100 µM. The TGI (EKVX NSCLC) was > 100 µM, the TGI (OVCAR-3 ovarian) was > 100 µM and the TGI (MOLT-4 leukemia) was > 100 µM. For the same compound, the TGI (HT29 colon) was > 100 µM, the TGI (SK-MEL-28 melanoma) was > 100 µM and the TGI (HL-60(TB) leukemia) was > 100 µM.
`O=S(=O)(c1ccc(I)cc1)N(c1ccccc1)S(=O)(=O)C(F)(F)C(F)(F)C(F)(F)C(F)(F)F` was tested, and the TGI (TK-10 renal) was 73.5 µM, the TGI (MCF7 breast) was > 100 µM and the TGI (KM12 colon) was > 100 µM. For the same compound, the TGI (HCT-116 colon) was 44.6 µM, the TGI (EKVX NSCLC) was > 100 µM and the TGI (OVCAR-3 ovarian) was 50.9 µM. The TGI (MOLT-4 leukemia) was > 100 µM, the TGI (HT29 colon) was 51.2 µM and the TGI (SK-MEL-28 melanoma) was > 100 µM. The TGI (HL-60(TB) leukemia) was > 100 µM.
With `COc1ccc(SC(C)(SC)c2ccccn2)c(OC)n1` (stereo not given) the TGI (TK-10 renal) was > 100 µM, the TGI (MCF7 breast) was > 100 µM and the TGI (KM12 colon) was > 100 µM. The TGI (HCT-116 colon) was > 100 µM, the TGI (EKVX NSCLC) was > 100 µM and the TGI (OVCAR-3 ovarian) was > 100 µM. For the same compound, the TGI (MOLT-4 leukemia) was > 100 µM, the TGI (HT29 colon) was > 100 µM and the TGI (SK-MEL-28 melanoma) was > 100 µM. It also gave a TGI (HL-60(TB) leukemia) of 28.3 µM.
`Oc1cc2cccc[n+]2c2cccc(Cl)c12` was tested, and the GI50 (MCF7 breast) was 16.7 µM, the TGI (MCF7 breast) was 36.5 µM and the GI50 (HCT-116 colon) was 55.7 µM. The GI50 (EKVX NSCLC) was 38.4 µM, the GI50 (MOLT-4 leukemia) was 34.9 µM and the GI50 (HT29 colon) was 40.7 µM. For the same compound, the GI50 (SK-MEL-28 melanoma) was 21.8 µM and the GI50 (HL-60(TB) leukemia) was 35.8 µM.
`O=C(O)C1CC(c2ccccc2)=NN1c1ccccc1` (stereo not given) was tested, and the TGI (TK-10 renal) was > 100 µM, the TGI (MCF7 breast) was > 100 µM and the TGI (KM12 colon) was > 100 µM. For the same compound, the TGI (HCT-116 colon) was > 100 µM, the TGI (EKVX NSCLC) was 88.9 µM and the TGI (OVCAR-3 ovarian) was > 100 µM. For the same compound, the TGI (MOLT-4 leukemia) was > 100 µM, the TGI (HT29 colon) was > 100 µM and the TGI (SK-MEL-28 melanoma) was > 100 µM. The TGI (HL-60(TB) leukemia) was > 100 µM.
`N#C/C=C1\C=CC(O)C(O)C1OC1OC(CO)C(O)C(O)C1O` (stereo not given) was tested, and the TGI (TK-10 renal) was > 100 µM, the TGI (MCF7 breast) was > 100 µM and the TGI (KM12 colon) was > 100 µM. The TGI (HCT-116 colon) was > 100 µM, the TGI (EKVX NSCLC) was > 100 µM and the TGI (OVCAR-3 ovarian) was > 100 µM. For the same compound, the TGI (MOLT-4 leukemia) was > 100 µM, the TGI (HT29 colon) was > 100 µM and the TGI (SK-MEL-28 melanoma) was > 100 µM. For the same compound, the TGI (HL-60(TB) leukemia) was > 100 µM.
`S=C1N(c2ccc(Cl)cc2)C2=C(N=Nc3ccccc3)C(=Nc3ccccc3S2)N1c1ccccn1` showed a TGI (TK-10 renal) of 28 µM, a TGI (MCF7 breast) of 15.2 µM and a TGI (KM12 colon) of 23.8 µM. For the same compound, the TGI (HCT-116 colon) was 27.1 µM, the TGI (EKVX NSCLC) was 26.6 µM and the TGI (OVCAR-3 ovarian) was 27.2 µM. The TGI (MOLT-4 leukemia) was 31.7 µM, the TGI (HT29 colon) was 35.6 µM and the TGI (SK-MEL-28 melanoma) was 29.4 µM. The TGI (HL-60(TB) leukemia) was 28.1 µM.
`CN(C)Cc1ccc(C(=O)Nc2ccc3ncnc(Nc4ccc(Oc5cccc(F)c5)c(Cl)c4)c3c2)cc1` showed a GI50 (MCF7 breast) of 1.54 µM, a TGI (MCF7 breast) of 3 µM and a GI50 (KM12 colon) of 1.75 µM. For the same compound, the TGI (KM12 colon) was 3.21 µM, the GI50 (EKVX NSCLC) was 1.3 µM and the TGI (EKVX NSCLC) was 2.7 µM. The GI50 (OVCAR-3 ovarian) was 1.5 µM, the TGI (OVCAR-3 ovarian) was 2.92 µM and the GI50 (MOLT-4 leukemia) was 1.55 µM. For the same compound, the TGI (MOLT-4 leukemia) was 3.21 µM, the GI50 (SK-MEL-28 melanoma) was 1.68 µM and the TGI (SK-MEL-28 melanoma) was 3.09 µM. It also gave a GI50 (HL-60(TB) leukemia) of 1.91 µM and a TGI (HL-60(TB) leukemia) of 3.7 µM.
`CC(C)C(N=Cc1ccccc1O)C(=O)O` (stereo not given) was tested, and the TGI (TK-10 renal) was > 100 µM, the TGI (MCF7 breast) was > 100 µM and the TGI (KM12 colon) was > 100 µM. For the same compound, the TGI (HCT-116 colon) was > 100 µM, the TGI (EKVX NSCLC) was > 100 µM and the TGI (OVCAR-3 ovarian) was > 100 µM. For the same compound, the TGI (MOLT-4 leukemia) was > 100 µM, the TGI (HT29 colon) was > 100 µM and the TGI (SK-MEL-28 melanoma) was > 100 µM. The TGI (HL-60(TB) leukemia) was > 100 µM.
